According to patent publication US4166125A, “2-Oxo-phenylbutanoic acid derivatives” (Grelan Pharmaceutical Co., Ltd., priority 1977, dated 1979):

Experiments:
[1] = Stability on storage at 50° C. and humidity of 70% for 1 month; format: physicochemical; details: among the compounds (I)
Experimental: For example, when the compounds (I) are kept at temperature of 50° C., and humidity of 70% for 1 month, no substantial change with respect to their appearances and values of quantitative analysis was observed, and no decomposition product was detected by thin-layer chromatography. Thus compounds (I) are prepared for administration in the form of pharmaceutical compositions according to conventional methods in the field of the art, and it is possible to prepare a pharmaceutical composition which comprises a therapeutically effective amount of at least one compound of the general formula (I) as an active ingredient, i.e. anti-inflammatory composition, in solid administration form (e.g. tablets, granules, powders, capsules, suppository), and liquid administration form (e.g. suspension, emulsion). In that case, as carrier, vehicle, solvent or dispersant, there may be used any of those which are known in the field of art. There may be exemplified water, starch, lactose, crystalline cellulose, magnesium stearate, hydroxypropyl cellulose, mannitol, carboxymethyl cellulose, glycol, ethanol, corn oil, peanut oil, castor oil, cacao butter, isocacao, polyoxyethylene stearate. […]

[2] = system: gastric mucosa; experiment: Effect on gastric mucosa (2) (oral administration); format: in vivo, rat (Sprague-Dawley strain); details: rats, 4 hours
Experimental: 4 Hours after the administration, the rat was sacrificed with ether, and its stomach was removed. The stomach was treated with 5% formalin for 3 minutes, and gastric mucosa was observed under a stereoscopic microscope. When gastric lesion in the mucosa was found, the number of the lesion in the mucosa was counted.

[3] = system: adjuvant arthritis; experiment: Inhibition to adjuvant arthritis (oral administration); format: in vivo, rat (Sprague-Dawley strain); details: for Increase in body weight / Weight of the organs: Adrenal glands / Weight of the organs: Spleen / Weight of the organs: Thymus: once a day for 7 days
Experimental: Inhibition to adjuvant arthritis.
According to a method conforming to Fujihira et al [Oyo Yakuri, 5, 169, (1971)], liquid paraffin suspension of Mycobacterium butiricum (hereinafter abbreviated as adjuvant) was injected subcutaneously to right hind paws of male rats (Spraque-Dawley strain) weighing 150 to 170 g in an amount of 0.3 mg/0.05 ml/rat. 14 Days after adjuvant injection, the rats, paws of which swelled to a similar degree, were selected and they were separated into groups. From the 15th day after adjuvant injection, each test compound suspended in 0.3% CMC-Na solution was orally administered once a day for 7 days to the 7 rats in each group in the dose shown in the following table 2.
The 16th, 19th and 22nd days after adjuvant injection the volume of left hand paws (i.e. paws not treated with the adjuvant) of the rats and their body weight were measured. Inhibition percent to the arthritis (edema) is calculated according to the same equation as that used in Experiment 1, and the value of ED40 is calculated on the basis of the inhibition percent. Then the rats were sacrificed with ether and the weight of their thymus, adrenal glands and spleen was determined.

[4] = system: febrile body temperature (Brewer's yeast); experiment: Antipyretic activity (oral administration); format: in vivo, rat (Sprague-Dawley strain); details: 250 mg/Kg oral
Experimental: Antipyretic activity (oral administration)
According to a method conforming to Winter, C. A. et al [The Journal of Pharmacology and Experimental Therapeutics 133, 117, (1961)], 20% Brewer's yeast suspension in physiological saline was injected subcutaneously to 5 male rats in each group (Sprague-Dawley strain) weighing 200 to 250 g in an amount of 1.0 ml per 100 g of body weight of the rat. After fasting for 18 hours, each test compound suspended in 1% gum arabic solution was administered orally to the rats in an amount of 1.0 ml per 100 g of body weight. Then, the rectal temperature of the rats was taken.

[5] = system: mice; experiment: Acute toxicity (1) (oral administration); format: in vivo; details: mice
Experimental: (§1) After administration of the compound, the number of mice that died during 7 days was observed, and LD50 value was calculated on the basis of the mortality.

[6] = Acute toxicity (1) (oral administration); format: in vivo; details: in vivo; mouse, oral, 7 days
Experimental: as §1

[7] = system: gross behaviour of the mice; experiment: Gross behaviour (1) (oral administration), Irwin's multi-dimensional observation; details: oral, 500, 1000, 2000 and 4000 mg/Kg, 4 hours
[8] = system: pain threshold of hind paws (Brewer's yeast); experiment: Analgesic activity, Randall and Selitto method (oral administration); format: in vivo, rat (Sprague-Dawley strain)
Experimental: Randall and Selitto method
According to a method conforming to Randall, L. O. and Selitto, J. J. [Archives Internationales de Pharmacodynamie et de Therapie, 111, 409, (1957)], 0.1 ml of 10% Brewer's yeast suspension in physiological saline was injected subcutaneously into the plantar surface of the right hind paws of 5 male rats in each group (Sprague-Dawley strain) weighing 90 to 110 g. 2 Hours after administration of the yeast suspension, each test compound suspended in 0.3% CMC-Na solution was orally administered to the rats in an amount of 1.0 ml per 100 g of body weight of the rat. 30 Minutes, 60 minutes and 120 minutes after administration of the test compounds, threshold values of left and right hind paws of the rats were measured by an electric pressure device made by Daiwa Kinzoku Co., Ltd. (Japan). The change of threshold was obtained by comparing the pain threshold obtained in a group after the yeast injection with that obtained before the yeast injection, in the same group as above. Increasing percent of pain threshold of the test compound was calculated on the basis of the mean changes of threshold of the test group and of that of the control group. Rats of the control group were administered orally only 0.3% CMC-Na solution.
According to the Litchfield-Wilcoxon method [The Journal of Pharmacology and Experimental Therapeutics, 96, 96, (1949)], ED50 value was calculated as follows on the basis of the increasing percent of pain threshold;

[9] = system: gross behaviour of the rats; experiment: Gross behaviour (2) (oral administration); details: oral, 500, 1000, 2000 and 4000 mg/Kg, 4 hours
Experimental: In 0.3% CMC-Na solution was suspended 2-oxo-3-[4-(1-oxo-2-isoindolinyl)phenyl]butanamide in at a concentration of 20%. The 20% CMC-Na suspension was administered orally to 3 male rats in each group (Sprague-Dawley strain) weighing 150 to 200 g. The dosage of the compound were 500, 1000, 2000 and 4000 mg/Kg. […] To rats of a control group was administered orally only 0.3% CMC-Na solution.

[10] = oral, 500, 1000, 2000 and 4000 mg/Kg, 7 days

SMILES: CC(C(=O)C(N)=O)c1ccc(N2Cc3ccccc3C2=O)cc1 (centres unmarked) [2-oxo-3-[4-(1-oxo-2-isoindolinyl)phenyl]butanamide]
- Stability (in words) [1]: more stable
- Mean number of gastric lesion ([2]; 50 mg/Kg oral): 0
- Mean number of gastric lesion ([2]; 100 mg/Kg oral): 0
- Mean number of gastric lesion ([2]; 200 mg/Kg oral): 0.3
- Mean number of gastric lesion ([2]; 400 mg/Kg oral): 1.6
- Mean number of gastric lesion ([2]; 800 mg/Kg oral): 0.4
- Inhibition to adjuvant arthritis ([3]; 25 mg/Kg oral, 1st day): 24.0%
- Inhibition to adjuvant arthritis ([3]; 25 mg/Kg oral, 4th day): 25.1%
- Inhibition to adjuvant arthritis ([3]; 25 mg/Kg oral, 7th day): 35.2%
- Increase in body weight ([3]; 25 mg/Kg oral): 28.4 g
- Weight of the organs: Adrenal glands ([3]; 25 mg/Kg oral): 12.5 ± 1.3 mg/100g of body weight
- Weight of the organs: Spleen ([3]; 25 mg/Kg oral): 441.1 ± 39.6 mg/100g of body weight
- Weight of the organs: Thymus ([3]; 25 mg/Kg oral): 146.0 ± 7.3 mg/100g of body weight
- Inhibition to adjuvant arthritis ([3]; 100 mg/Kg oral, 1st day): 32.7%
- Inhibition to adjuvant arthritis ([3]; 100 mg/Kg oral, 4th day): 34.5%
- Inhibition to adjuvant arthritis ([3]; 100 mg/Kg oral, 7th day): 45.3%
- Increase in body weight ([3]; 100 mg/Kg oral): 40.7 g
- Weight of the organs: Adrenal glands ([3]; 100 mg/Kg oral): 11.5 ± 0.7 mg/100g of body weight
- Weight of the organs: Spleen ([3]; 100 mg/Kg oral): 414.2 ± 28.8 mg/100g of body weight
- Weight of the organs: Thymus ([3]; 100 mg/Kg oral): 147.2 ± 15.6 mg/100g of body weight
- Drop of febrile body temperature [4]: 1 °C
- Macroscopic observation of organs in head, thorax and abdominal cavity ([5]; after 7 days): No abnormality was observed
- Abnormal behaviour [5, 10]: not observed
- Death [5, 10]: not observed
- Inhibition to increase of body weight [5, 10]: not observed
- LD50 at 168 h [6]: > 4000 mg/kg
- Abnormal behaviour (depression to spontaneous activity, loss of righting reflex, tremor, convulsion, abnormal gait, loss of pinna reflex, loss of corneal reflex, abnormality of respiration) [7]: not observed
- Increasing percent of pain threshold ([8]; 25 mg/Kg oral, 30 minutes after administration): 15.6 ± 10.3%
- Increasing percent of pain threshold ([8]; 25 mg/Kg oral, 60 minutes after administration): 14.1 ± 13.7%
- Increasing percent of pain threshold ([8]; 25 mg/Kg oral, 120 minutes after administration): 22.1 ± 18.5%
- Increasing percent of pain threshold ([8]; 50 mg/Kg oral, 30 minutes after administration): 46.9 ± 4.6%
- Increasing percent of pain threshold ([8]; 50 mg/Kg oral, 60 minutes after administration): 32.7 ± 5.9%
- Increasing percent of pain threshold ([8]; 50 mg/Kg oral, 120 minutes after administration): 48.6 ± 9.0%
- Increasing percent of pain threshold ([8]; 100 mg/Kg oral, 30 minutes after administration): 46.1 ± 6.6%
- Increasing percent of pain threshold ([8]; 100 mg/Kg oral, 60 minutes after administration): 32.4 ± 7.0%
- Increasing percent of pain threshold ([8]; 100 mg/Kg oral, 120 minutes after administration): 39.0 ± 7.3%
- Increasing percent of pain threshold ([8]; 200 mg/Kg oral, 30 minutes after administration): 57.3 ± 14.8%
- Increasing percent of pain threshold ([8]; 200 mg/Kg oral, 60 minutes after administration): 39.7 ± 8.9%
- Increasing percent of pain threshold ([8]; 200 mg/Kg oral, 120 minutes after administration): 39.6 ± 6.5%
- ED50 ([8]; Rattus norvegicus, oral, Litchfield-Wilcoxon method, from increasing percent of pain threshold): 100 mg/kg
- Abnormal behaviour (depression to spontaneous activity, loss of righting reflex, tremor, convulsion, abnormal gait, loss of pinna reflex, loss of corneal reflex, abnormality of respiration) [9]: not observed
